Assay results: US10597388B2, “Pyridazinone herbicides” (FMC CORPORATION, priority 2014, dated 2020)

Legend:
Assay type in all cases: in vivo
[1] = tested on: pigweed (Amaranthus retroflexus); experiment: Test C greenhouse herbicide test, pre- and postemergence
How it was run: (§1)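 Seeds sown in loam–sand blend treated preemergence; plants in peat-based medium sprayed postemergence at 2–18 cm (1- to 4-leaf stage); chemicals in non-phytotoxic solvent with surfactant. Greenhouse 13–15 d, then visual rating versus controls on 0–100 scale (0 no effect, 100 complete control).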

[2] = tested on: johnsongrass (Sorghum halepense); experiment: as above
How it was run: as §1

[3] = tested on: foxtail, giant (giant foxtail, Setaria faberii); experiment: as above
How it was run: as §1

[4] = tested on: blackgrass (Alopecurus myosuroides); experiment: as above
How it was run: as §1

[5] = tested on: ragweed (common ragweed, Ambrosia elatior); experiment: as above
How it was run: as §1

[6] = tested on: waterhemp (common waterhemp, Amaranthus rudis); experiment: as above
How it was run: as §1

[7] = tested on: lambsquarters (Chenopodium album); experiment: as above
How it was run: as §1

[8] = tested on: wheat (winter wheat, Triticum aestivum); experiment: as above
How it was run: as §1

corn (Zea mays) = experiment: as above
How it was run: as §1

soybean (Glycine max) = experiment: as above
How it was run: as §1

[9] = tested on: ryegrass, Italian (Italian ryegrass, Lolium multiflorum); experiment: as above
How it was run: as §1

[10] = tested on: morningglory (Ipomoea coccinea); experiment: as above
How it was run: as §1

[11] = tested on: crabgrass, large (large crabgrass, Digitaria sanguinalis); experiment: as above
How it was run: as §1

[12] = tested on: barnyardgrass (Echinochloa crus-galli); experiment: as above
How it was run: as §1

[13] = tested on: oat, wild (wild oat, Avena fatua); experiment: Test C greenhouse herbicide test, postemergence
How it was run: (§2)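 Seedlings are raised in pots of peat moss–vermiculite medium with starter nutrients, then receive postemergence test chemical at the 1- to 4-leaf stage. They are kept in the greenhouse 13 to 15 d and scored visually versus controls, 0 meaning no effect and 100 complete control.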

kochia (Kochia scoparia) = experiment: Test C greenhouse herbicide test, postemergence
How it was run: as §2

[14] = Postemergence, 31 g ai/ha, scale 0 to 100 (0 no effect, 100 complete control)
[15] = Postemergence, 62 g ai/ha, 0 to 100 scale (0 no effect, 100 complete control)
[16] = Postemergence, 250 g ai/ha, scale 0 to 100, 0 no effect, 100 complete control, 13 to 15 d
[17] = Preemergence, 31 g ai/ha, scale 0 to 100, 0 is no effect, 100 is complete control
[18] = Preemergence, 62 g ai/ha, scale 0 to 100, 0 is no effect, 100 is complete control
[19] = Preemergence, 125 g ai/ha, scale 0 to 100, 0 is no effect, 100 is complete control
[20] = Preemergence, 250 g ai/ha, scale 0 to 100 (0 no effect, 100 complete control)
[21] = postemergence, 125 g ai/ha, scale 0 to 100, 0 no effect, 100 complete control

COc1nn(C)c(=O)c(-c2c(C)ccc3ccccc23)c1OC(C)=O [Compound 138]
20: Plant response rating, Johnsongrass [2, 16] | Johnsongrass plant response rating [2, 20] | Johnsongrass plant response rating [2, 21] | Plant response rating, Soybean (soybean (Glycine max); [19]) | Crabgrass, Large plant response rating [11, 15] | Crabgrass, Large plant response rating [11, 21]
100: Plant response rating, Pigweed [1, 17] | Plant response rating, Pigweed [1, 19] | Pigweed plant response rating [1, 20] | Plant response rating, Foxtail, Giant [3, 19] | Foxtail, Giant plant response rating [3, 20] | Plant response rating, Ragweed [5, 18] | Plant response rating, Waterhemp [6, 16] | Plant response rating, Waterhemp [6, 18] | Waterhemp plant response rating [6, 20] | Plant response rating, Lambsquarters [7, 19] | Lambsquarters plant response rating [7, 20] | Morningglory plant response rating [10, 15] | Plant response rating, Morningglory [10, 16] | Plant response rating, Kochia (kochia (Kochia scoparia); [16]) | Kochia plant response rating (kochia (Kochia scoparia); [21])
70: Plant response rating, Ryegrass, Italian [9, 16] | Plant response rating, Crabgrass, Large [11, 19]
55: Plant response rating, Blackgrass [4, 18] | Plant response rating, Ryegrass, Italian [9, 17] | Plant response rating, Barnyardgrass [12, 18]
40: Plant response rating, Blackgrass [4, 19] | Wheat plant response rating [8, 15] | Plant response rating, Crabgrass, Large [11, 18] | Plant response rating, Barnyardgrass [12, 16]
65: Foxtail, Giant plant response rating [3, 21]
30: Plant response rating, Johnsongrass [2, 19] | Plant response rating, Barnyardgrass ([12]; Postemergence, 125 g ai/ha, scale 0 to 100, 0 is no effect, 100 is complete control) | Plant response rating, Barnyardgrass [12, 17]
80: Plant response rating, Pigweed [1, 14] | Plant response rating, Foxtail, Giant [3, 16] | Plant response rating, Foxtail, Giant [3, 17] | Plant response rating, Blackgrass [4, 16] | Wheat plant response rating [8, 21] | Plant response rating, Morningglory [10, 17] | Crabgrass, Large plant response rating [11, 20] | Oat, Wild plant response rating [13, 15] | Oat, Wild plant response rating [13, 21]
35: Plant response rating, Foxtail, Giant [3, 14] | Plant response rating, Wheat [8, 18]
15: Plant response rating, Johnsongrass [2, 18] | Plant response rating, Corn (corn (Zea mays); [16]) | Corn plant response rating (corn (Zea mays); [20]) | Corn plant response rating (corn (Zea mays); [21]) | Soybean plant response rating (soybean (Glycine max); [20]) | Plant response rating, Crabgrass, Large [11, 14]
90: Pigweed plant response rating [1, 21] | Blackgrass plant response rating [4, 20] | Plant response rating, Waterhemp [6, 14] | Plant response rating, Lambsquarters [7, 14] | Lambsquarters plant response rating [7, 15] | Plant response rating, Wheat [8, 16] | Plant response rating, Ryegrass, Italian [9, 18] | Plant response rating, Ryegrass, Italian [9, 19] | Plant response rating, Morningglory [10, 18] | Plant response rating, Barnyardgrass [12, 19] | Plant response rating, Oat, Wild [13, 16] | Plant response rating, Kochia (kochia (Kochia scoparia); [14])
60: Foxtail, Giant plant response rating [3, 15] | Plant response rating, Wheat [8, 14]
95: Plant response rating, Ragweed [5, 17] | Ragweed plant response rating [5, 20] | Waterhemp plant response rating [6, 15] | Plant response rating, Waterhemp [6, 17] | Plant response rating, Lambsquarters [7, 17] | Plant response rating, Lambsquarters [7, 18] | Lambsquarters plant response rating [7, 21] | Ryegrass, Italian plant response rating [9, 20] | Kochia plant response rating (kochia (Kochia scoparia); [15])
25: Plant response rating, Soybean (soybean (Glycine max); [16]) | Plant response rating, Crabgrass, Large [11, 16] | Plant response rating, Barnyardgrass [12, 14] | Barnyardgrass plant response rating [12, 15]
10: Plant response rating, Johnsongrass [2, 14] | Johnsongrass plant response rating [2, 15] | Plant response rating, Johnsongrass [2, 17] | Plant response rating, Soybean (soybean (Glycine max); [14]) | Soybean plant response rating (soybean (Glycine max); [15]) | Soybean plant response rating (soybean (Glycine max); [21]) | Ryegrass, Italian plant response rating [9, 21]
0: Plant response rating, Ragweed [5, 14] | Ragweed plant response rating [5, 15] | Plant response rating, Wheat [8, 17] | Plant response rating, Corn (corn (Zea mays); [14]) | Corn plant response rating (corn (Zea mays); [15]) | Plant response rating, Soybean (soybean (Glycine max); [17]) | Plant response rating, Soybean (soybean (Glycine max); [18]) | Plant response rating, Crabgrass, Large [11, 17]
45: Plant response rating, Blackgrass [4, 17]
50: Blackgrass plant response rating [4, 21] | Plant response rating, Oat, Wild [13, 14]
5: Plant response rating, Blackgrass [4, 14] | Blackgrass plant response rating [4, 15] | Plant response rating, Ragweed [5, 16] | Ragweed plant response rating [5, 21] | Plant response rating, Wheat [8, 19] | Wheat plant response rating [8, 20] | Plant response rating, Corn (corn (Zea mays); [17]) | Plant response rating, Corn (corn (Zea mays); [18]) | Plant response rating, Corn (corn (Zea mays); [19]) | Plant response rating, Ryegrass, Italian [9, 14] | Ryegrass, Italian plant response rating [9, 15]
85: Pigweed plant response rating [1, 15] | Plant response rating, Foxtail, Giant [3, 18]
98: Plant response rating, Pigweed [1, 16] | Plant response rating, Pigweed [1, 18] | Plant response rating, Ragweed [5, 19] | Plant response rating, Waterhemp [6, 19] | Waterhemp plant response rating [6, 21] | Plant response rating, Lambsquarters [7, 16] | Plant response rating, Morningglory [10, 14] | Plant response rating, Morningglory [10, 19] | Morningglory plant response rating [10, 20] | Morningglory plant response rating [10, 21] | Barnyardgrass plant response rating [12, 20]
